Test system: PTZ-induced seizures
Experiment: PTZ seizure threshold test in mice (intravenous PTZ infusion), Example 1
Format: in vivo
Experimental: Male NIH Swiss mice (22-30 g) were kept in a vivarium under controlled environmental conditions (temperature, 22-26° C.; humidity, 40-50%) with an artificial 12-h light/dark cycle. Wood chips were used in all cages. Experiments were performed during the light phase of the light/dark cycle after a minimum 30-min period of acclimation to the experimental room. The animal facilities were fully accredited by the Association for Assessment and Accreditation of Laboratory Animal Care. All studies were performed under protocols approved by the Animal Care and Use Committee of the University of California, Davis in strict compliance with the Guide for the Care and Use of Laboratory Animals of the National Research Council (National Academy Press, Washington, D.C.).
Intratracheal administration of midazolam was carried out as described by Oka et al. (2006). In brief, mice were briefly anesthetized using isoflurane anesthesia (4% isoflurane). The animals were immediately placed on a surgical board held at a 60° angle. The animal's mouth was kept open by hanging the upper incisors on a hook to facilitate detection of the epiglottis. An operating light was used to illuminate the view of the pharynx after displacement of the tongue with a spatula. A syringe fitted with a blunted 24-gauge/25-mm was pushed against the soft palate to enter the trachea past the vocal cords. When the tracheal cartilage ring is felt, the needle is considered properly placed within the tracheal lumen. The needle was inserted almost to the bottom of the trachea. When the animals began to show signs that the anesthesia was waning, the liquid sample was gently injected at a dose volume of 0.25 ml/kg. After the injection of solution, air (1 ml syringe) was blown inside the lungs to uniformly distribute the drug in the lungs. Following the injection, the needle was gently removed and animal was held vertically for 2 min to facilitate the downward movement of liquid in the lungs. The animal was allowed 10 min to recover fully from the anesthesia as confirmed by normal spontaneous exploratory behavior. Seizure testing then commenced. For each of the seizure tests, we verified that there was no residual effect of the anesthetic on responsiveness.
The thresholds for various behavioral seizure stages induced by the GABA receptor antagonists PTZ and picrotoxin were determined by infusing the convulsant drugs via a 27 gauge-¾ inch “butterfly” needle inserted into the lateral tail vein. The needle was secured to the tail vein by a narrow piece of adhesive tape and the animal was permitted to move freely inside an inverted 2 litre glass beaker with free aeration from the top. PTZ (10 mg/ml) (Akula et al., 2008), and picrotoxin (1 mg/ml) (Chan et al., 2006) was infused at a constant rate of 0.5 ml/min using a Beckton Dickinson (1 ml) syringe mounted on an infusion pump (Model ‘11’ plus syringe pump; Harvard Apparatus, Holliston, Mass., USA). The syringe was connected to the needle by polyethylene tubing. The infusion was stopped at 3 min or at the onset of tonic extension, whichever occurred first. The thresholds to the following endpoints were determined: (i) the first myoclonic jerk; (ii) the onset of generalized clonus with loss of righting reflexes; and (iii) the onset of tonic extension. Latencies were measured from the start of convulsant infusion to the onset of all these three events. The threshold value (mg/kg) for each endpoint was determined according to the following formula: (infusion duration [sec]×infusion rate [ml/min]×convulsant drug concentration [mg/ml]×1000)/(60 [sec]×weight of mouse [g]).
Results are expressed as mean±S.E.M.; the significance of the difference in the responses of treatment groups with respect to control is based on one-way analysis of variance (ANOVA) followed by specific post-hoc comparisons using Tukey's test. Differences were considered statistically significant when the probability of error was less than 0.05 (P<0.05). […]

Cc1ncc2n1-c1ccc(Cl)cc1C(c1ccccc1F)=NC2 [Midazolam, midazolam]
anticonvulsant activity, PTZ i.v. seizure threshold model (25 μg/kg and 50 μg/kg intratracheally, 10 minutes before intravenous PTZ (FIG. 5)): active as anticonvulsant
dose required for anticonvulsant activity, PTZ i.v. seizure threshold model (administered intraperitoneally (FIG. 5)): 0.5 mg/kg
dose required for anticonvulsant activity, PTZ i.v. seizure threshold model (administered intravenously, 10 minutes before intravenous PTZ (FIG. 5)): 0.1 to 0.2 mg/kg
thresholds for all seizure signs (myoclonic jerk, clonus, tonic extension) vs vehicle (intraperitoneal 500, 1000, 2500 and 5000 μg/kg, pretreatment 15 min (FIG. 1A)): significant elevation
thresholds for seizure signs vs vehicle (intratracheal 12.5 μg/kg, pretreatment 10 min): enhanced the seizure threshold for clonic but ineffective against tonic extensor phases
time of maximal effect (intratracheal 100 μg/kg): 5 to 15 min
time course: threshold vs vehicle pretreated animals (intratracheal 100 μg/kg, pretreatment 5, 10, 20, 40 and 60 min (FIG. 2)): elevation in threshold
thresholds for seizure signs vs vehicle (intratracheal 25, 50 and 100 μg/kg, pretreatment 10 min (FIG. 1B)): effective

— patent publication US20130309306A1, “INTRAPULMONARY BENZODIAZEPINE FOR THE TREATMENT AND PREVENTION OF SEIZURES” (priority 2010, published 2013)
